Source: patent US8258128B2, “Organic compounds” (Novartis AG, priority 2006, dated 2012)
Several values for one entry are separate records, joined by “and”; a condition that tells them apart may be missing. Identical values can stand only once. Marks after values point to notes of the source that are not given here.

Key:
[1] = tested on: rat carrageenan edema model; assay: Carrageenan edema in the rat (paw swelling); format: in vivo
Method: Carrageenan edema in the rat: The effects of COMPOUND A are investigated in the carrageenan edema model. In this model an acute paw swelling is induced by the sub-plantar injection of carrageenan. The paw swelling has a duration of approximately 8 hours and is completely resolved at 24 hours. The model is used to assess anti-inflammatory activities of new therapeutics and is also sensitive to drugs such as COX-inhibitors like Diclofenac, which is used as a positive control compound in the model.
Method: Male OFA rats (5 animals/group) are treated orally with COMPOUND A (1, 3 and 9 mg/kg), Diclofenac (3 mg/kg) or vehicle (placebo formulation). One hour later (0 hours) the rats receive a 100 μl intra-plantar injection of a 1% w/v carrageenan solution in 0.9% saline in the hind paw and the diameter of the paw is measured by means of a micro-caliper. The paw diameter measurements are repeated 3 and 5 hours after injection of the carrageenan. Percentage inhibition of paw swelling at 3 and 5 hours is calculated by reference to vehicle treated animals (0% inhibition).
Edema is induced by a sub-plantar injection of carrageenan in the paw of the rat. Paw diameters are measured at the time of carrageenan injection (0 hours) and at 3 and 5 hours. Compounds are administered 1 hour before the carrageenan injection. COMPOUND A was dosed at 1, 3 and 9 mg/kg p.o. and Diclofenac at 3 mg/kg p.o.

[2] = tested on: developing Adjuvant-induced arthritis in rats; assay: Developing adjuvant-induced arthritis in rats (prophylactic dosing schedule); format: in vivo, rat; settings: for % inhibition: day 0 to day 14; for Swelling (mm) ± SEM: day 0 to day 14, readout day 14
Description: Adjuvant arthritis can be treated using two different dosing schedules; either starting at the time of immunization with adjuvant (prophylactic dosing) or from day 15 when the arthritic response is already established (therapeutic dosing). It is more difficult to inhibit adjuvant arthritis with the therapeutic dosing schedule as compared to the prophylactic schedule. Both versions of adjuvant arthritis are, however, extremely sensitive to the effects of both non-selective COX inhibitors and COX 2 selective inhibitors where 70-90% inhibition of swelling can be achieved at appropriate doses. These models may be predictive for some of the processes thought to be relevant in rheumatoid arthritis.
Method: Female Wistar rats weighing 150-170 g (housed in standard conditions, 5 animals per cage, with food and water ad libitum) are injected i.d. at the base of the tail with 0.1 ml of mineral oil containing 0.6 mg of lyophilized heat-killed Mycobacterium tuberculosis. The rats are treated orally with COMPOUND A or placebo formulation from day 15 to day 22 (therapeutic dosing schedule) or with COMPOUND A from day 0 to day 14 after immunization (prophylactic dosing schedule). At the end of the experiment, the swelling of the tarsal joints is measured by means of a micro-caliper. For the comparison study to Diclofenac both compounds are given from day 15 to day 29 with readouts at day 22 and 29. Percentage inhibition of paw swelling is calculated by reference to placebo treated arthritic animals (0% inhibition) and placebo treated normal animals (100% inhibition). Five animals are used per group. Data are analyzed using Kruskal-Wallis non-parametric ANOVA followed by Dunn's Multiple Comparison test.

## COC1=Nc2cc(Cl)ccc2/C(=C/C(=O)O)c2sc(Cl)cc21 [COMPOUND A, [2,7-Dichloro-10-methoxy-3-thia-9-aza-benzo[f]azulen-(4Z)-ylidene]-acetic acid]
[1]; 1 mg/kg p.o., 3 hrs after carrageenan
  % inhibition of paw swelling: 58%
[1]; 1 mg/kg p.o., 5 hrs after carrageenan
  % inhibition of paw swelling: 65%
[1]; 3 mg/kg p.o., 3 hrs after carrageenan
  % inhibition of paw swelling: 67%
[1]; 3 mg/kg p.o., 5 hrs after carrageenan
  % inhibition of paw swelling: 48%
[1]; 9 mg/kg p.o., 3 hrs after carrageenan
  % inhibition of paw swelling: 88%
[1]; 9 mg/kg p.o., 5 hrs after carrageenan
  % inhibition of paw swelling: 74%
[1]; after 3 and 5 hours, dose of 1 to 9 mg/kg
  inhibition in the carrageenan edema model (in words): dose-related inhibition
[2]; 0.3 mg/kg p.o.
  % inhibition: 14.3 * %
  Swelling (mm) ± SEM: 10.9 ± 0.6 mm
[2]; 1 mg/kg p.o.
  % inhibition: 57.1 * %
  Swelling (mm) ± SEM: 9.1 ± 0.5 mm
[2]; 3 mg/kg p.o.
  % inhibition: 88% and 88.1 ** %
  Swelling (mm) ± SEM: 7.8 ± 0.2 mm
[2]; Rattus norvegicus, po, prophylactic dosing schedule, read-out: calculated ED50
  ED50: 0.8 mg/kg
